Test results taken from patent US10703764B2, “Benzopiperazine compositions as BET bromodomain inhibitors” (FORMA Therapeutics, Inc., priority 2013, dated 2020).

Columns and labels:
BRD4 BD1 = target: T1, BRD4 BD1 (Homo sapiens, UniProt O60885); assay: AlphaScreen binding assay, BRD4 Bromodomain 1
T1 construct: made in house
Outline: (§1)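 Compound dilution series were mixed with His-tagged BRD4 bromodomain and biotinylated tetra-acetylated H4 (1-21) peptide at pH 7.3 (BD1 and peptide at 50 nM, BD2 and peptide at 100 nM). Donor and acceptor beads were then added, and plates were equilibrated at least 1 h before reading. IC50 values were fitted with a four-parameter logistic model.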

BRD4 BD2 = target: T2, BRD4 BD2 (Homo sapiens, UniProt O60885); assay: AlphaScreen binding assay, BRD4 Bromodomain 2
T2 construct: made in house
Outline: as §1

MV4-11 cells = assay: Oncology cell growth assay (3-day proliferation, CellTiter-Glo); assay type: cell-based; conditions: Homo sapiens, MV4-11, 72 h, AML cell line MV4-11, 72 hours, compounds grouped by IC50 range, read-out: MV4-11 IC50 (inhibition of proliferation, gIC50)
Outline: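 A 3-day proliferation test used MV4-11 cells seeded at 3000 per well with eight compound concentrations (10 μM top, 3-fold dilution) at 37° C in 5% CO2. CellTiter-Glo luminescence defined viable cell signal. A four-parameter logistic curve against DMSO and background wells gave the gIC50.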

Structure (SMILES) | IC50 (BRD4 BD1) | IC50 (BRD4 BD2) | IC50 (MV4-11 cells)
COC(=O)N1c2ccc(-c3cnn(CC4CCOCC4)c3)cc2N(C(=O)OC(C)C)C[C@@H]1C [Example I-641] | 100 to 1000 nM | 50 to 500 nM | 100 to 500 nM
CC(=O)N1c2ccc(-c3cnn(CC4COC4)c3)cc2N(C(=O)OC(C)C)C[C@@H]1C [Example I-642] | 100 to 1000 nM | 50 to 500 nM | 100 to 500 nM
CC(C)OC(=O)N1C[C@H](C)N(C(=O)C2CC2)c2ccc(-c3cnn(CC4COC4)c3)cc21 [Example I-643] | 100 to 1000 nM | 50 to 500 nM | 100 to 500 nM
COC(=O)N1c2ccc(-c3cnn(CC4COC4)c3)cc2N(C(=O)OC(C)C)C[C@@H]1C [Example I-644] | 100 to 1000 nM | 50 to 500 nM | > 500 nM
CC(=O)N1c2ccc(-c3cnn(C(C)C)c3)cc2N(C(=O)C2CC2)C[C@@H]1C [Example I-647] | 100 to 1000 nM | 50 to 500 nM | > 500 nM
CC(=O)N1c2ccc(-c3cnn(CC4(F)COC4)c3)cc2N(C(=O)C2CC2)C[C@@H]1C [Example I-649] | 100 to 1000 nM | 50 to 500 nM | > 500 nM
CC(=O)N1c2ccc(-c3cnn(CCC#N)c3)cc2N(C(=O)C2CC2)C[C@@H]1C [Example I-650] | 100 to 1000 nM | 50 to 500 nM | 100 to 500 nM
CC(=O)N1c2ccc(-c3cnn(CC(F)F)c3)cc2N(C(=O)C2CC2)C[C@@H]1C [Example I-651] | 100 to 1000 nM | 50 to 500 nM | > 500 nM
CC(=O)N1c2ccc(-c3cnn(Cc4ccnn4C)c3)cc2N(C(=O)C2CC2)C[C@@H]1C [Example I-652] | 100 to 1000 nM | 50 to 500 nM | > 500 nM
CC(=O)N1c2ccc(-c3cnn(C(C)C)c3)cc2N(C(=O)OC(C)C)C[C@@H]1C [Example I-653] | 100 to 1000 nM | 50 to 500 nM | 100 to 500 nM
CC(=O)N1c2ccc(-c3cnn(CC(=O)N4CCOCC4)c3)cc2N(C(=O)OC(C)C)C[C@@H]1C [Example I-654] | 100 to 1000 nM | 50 to 500 nM | 100 to 500 nM
CC(=O)N1c2ccc(-c3cnn(CC4CCC4)c3)cc2N(C(=O)C2CC2)C[C@@H]1C [Example I-656] | 100 to 1000 nM | 50 to 500 nM | 100 to 500 nM
CC(=O)N1c2ccc(-c3cnn(CC4CCOCC4)c3)cc2N(C(=O)C2CC2)C[C@@H]1C [Example I-657] | 100 to 1000 nM | 50 to 500 nM | 100 to 500 nM
CC(=O)N1c2ccc(-c3cnn(CCN4CCCS4(=O)=O)c3)cc2N(C(=O)C2CC2)C[C@@H]1C [Example I-659] | 100 to 1000 nM | 50 to 500 nM | > 500 nM
CC(=O)N1c2ccc(-c3cnn(CC4(CO)COC4)c3)cc2N(C(=O)C2CC2)C[C@@H]1C [Example I-662] | 100 to 1000 nM | 50 to 500 nM | > 500 nM
CC(=O)N1c2ccc(-c3cnn(Cc4ccno4)c3)cc2N(C(=O)C2CC2)C[C@@H]1C [Example I-663] | 100 to 1000 nM | 50 to 500 nM | 100 to 500 nM
CCNC(=O)Cn1cc(-c2ccc3c(c2)N(C(=O)OC(C)C)C[C@H](C)N3C(C)=O)cn1 [Example I-664] | 100 to 1000 nM | 50 to 500 nM | 100 to 500 nM
CC(=O)N1c2ccc(-c3cnn(Cc4cc(C)on4)c3)cc2N(C(=O)OC(C)C)C[C@@H]1C [Example I-665] | 100 to 1000 nM | 50 to 500 nM | 100 to 500 nM
CC(=O)N1c2ccc(-c3cnn(CCF)c3)cc2N(C(=O)OC(C)C)C[C@@H]1C [Example I-666] | 100 to 1000 nM | 50 to 500 nM | 100 to 500 nM
CC(=O)N1c2ccc(-c3cnn(CC(=O)N4CCC4)c3)cc2N(C(=O)OC(C)C)C[C@@H]1C [Example I-667] | 100 to 1000 nM | 50 to 500 nM | 100 to 500 nM
CC(=O)N1c2ccc(-c3cnn(Cc4noc(C)n4)c3)cc2N(C(=O)C2CC2)C[C@@H]1C [Example I-668] | 100 to 1000 nM | 50 to 500 nM | 100 to 500 nM
CC(=O)N1c2ccc(-c3cnn(Cc4cc(C)on4)c3)cc2N(C(=O)C2CC2)C[C@@H]1C [Example I-669] | 100 to 1000 nM | 50 to 500 nM | > 500 nM
CC(=O)N1c2ccc(-c3cnn(CC(C)C)c3)cc2N(C(=O)C2CC2)CC1C (stereo not drawn) [Example I-670] | 100 to 1000 nM | 50 to 500 nM | 100 to 500 nM
CC(=O)N1c2ccc(-c3cnn(CCF)c3)cc2N(C(=O)C2CC2)C[C@@H]1C [Example I-671] | 100 to 1000 nM | 50 to 500 nM | 100 to 500 nM
CC(=O)N1c2ccc(-c3cnn(CCCO)c3)cc2N(C(=O)C2CC2)C[C@@H]1C [Example I-673] | 100 to 1000 nM | 50 to 500 nM | 100 to 500 nM

Further lines, results first:

IC50 (BRD4 BD1) | IC50 (BRD4 BD2) | IC50 (MV4-11 cells) | Structure (SMILES)
100 to 1000 nM | 50 to 500 nM | 100 to 500 nM | CC(=O)N1c2ccc(-c3cnn(Cc4nonc4C)c3)cc2N(C(=O)OC(C)C)C[C@@H]1C [Example I-677]
100 to 1000 nM | 50 to 500 nM | 100 to 500 nM | CC(=O)N1c2ccc(-c3cnn(CC4CC4(F)F)c3)cc2N(C(=O)OC(C)C)C[C@@H]1C (stereo partly drawn) [Example I-678]
100 to 1000 nM | 50 to 500 nM | 100 to 500 nM | CC(=O)N1c2ccc(-c3cnn(CCC#N)c3)cc2N(C(=O)OC(C)C)C[C@@H]1C [Example I-679]
100 to 1000 nM | 50 to 500 nM | 100 to 500 nM | CC(=O)N1c2ccc(-c3cnn(Cc4ccnn4C)c3)cc2N(C(=O)OC(C)C)C[C@@H]1C [Example I-680]
100 to 1000 nM | 50 to 500 nM | 100 to 500 nM | CC(=O)N1c2ccc(-c3cnn(Cc4ccn(C)n4)c3)cc2N(C(=O)C2CC2)C[C@@H]1C [Example I-682]
100 to 1000 nM | 50 to 500 nM | 100 to 500 nM | CC(=O)N1c2ccc(-c3cnn(Cc4cncs4)c3)cc2N(C(=O)C2CC2)C[C@@H]1C [Example I-686]
100 to 1000 nM | < 50 nM | 100 to 500 nM | CC(=O)N1c2ccc(-c3cnn(C[C@@H]4CCNC4)c3)cc2N(C(=O)OC(C)C)C[C@@H]1C [Example I-687]
100 to 1000 nM | 50 to 500 nM | 100 to 500 nM | CC(=O)N1c2ccc(-c3cnn(C[C@H]4CCNC4)c3)cc2N(C(=O)OC(C)C)C[C@@H]1C [Example I-688]
100 to 1000 nM | 50 to 500 nM | > 500 nM | CC(C)OC(=O)N1C[C@H](C)N(C(=O)C2CC2)c2ccc(-c3cnn(C[C@@H]4CCNC4)c3)cc21 [Example I-689]
100 to 1000 nM | 50 to 500 nM | > 500 nM | CC(C)OC(=O)N1C[C@H](C)N(C(=O)C2CC2)c2ccc(-c3cnn(C[C@H]4CCNC4)c3)cc21 [Example I-690]
100 to 1000 nM | 50 to 500 nM | > 500 nM | COC(=O)N1c2ccc(-c3cnn(C[C@H]4CCNC4)c3)cc2N(C(=O)OC(C)C)C[C@@H]1C [Example I-692]
1000 to 10000 nM | 50 to 500 nM | > 500 nM | CC(=O)N1c2ccc(-c3ccc(S(C)(=O)=O)cc3)cc2N(C(=O)c2cc3cnccc3[nH]2)CC1C (stereo not drawn) [Example I-778]
1000 to 10000 nM | 50 to 500 nM | > 500 nM | CC(=O)N1c2ccc(-c3ccc(S(C)(=O)=O)cc3)cc2N(C(=O)C2CC2)C[C@@H]1C [Example I-781]
1000 to 10000 nM | 50 to 500 nM | > 500 nM | CC(=O)N1c2ccc(-c3ccc(S(C)(=O)=O)cc3)cc2N(C(=O)c2cc3cc(O)ccc3[nH]2)CC1C (stereo not drawn) [Example I-786]
100 to 1000 nM | < 50 nM | 100 to 500 nM | CC(=O)N1c2ccc(-c3ccc(S(C)(=O)=O)cc3)cc2N(C(=O)c2cc3cccnc3[nH]2)CC1C (stereo not drawn) [Example I-789]
1000 to 10000 nM | 50 to 500 nM | > 500 nM | CC(=O)N1c2ccc(-c3ccc4ncccc4c3)cc2N(C(=O)COc2ccccc2)C[C@@H]1C [Example I-791]
> 10000 nM | 50 to 500 nM | > 500 nM | CC(=O)N1c2ccc(-c3cccc(-c4ccccc4)c3)cc2N(C(=O)COc2ccccc2)C[C@@H]1C [Example I-792]
1000 to 10000 nM | 50 to 500 nM | > 500 nM | CC(=O)N1c2ccc(-c3cccc(-c4ccccc4)c3)cc2N(C(=O)c2ccco2)C[C@@H]1C [Example I-793]
1000 to 10000 nM | > 500 nM | > 500 nM | CC(=O)N1c2ccc(-c3ccccc3F)cc2N(C(=O)COc2ccccc2)C[C@@H]1C [Example I-794]
1000 to 10000 nM | 50 to 500 nM | > 500 nM | CC(=O)N1c2ccc(-c3ccccc3F)cc2N(C(=O)c2ccco2)C[C@@H]1C [Example I-795]
100 to 1000 nM | < 50 nM | 100 to 500 nM | CC(=O)N1c2ccc(-c3ccc4c(ccn4C)c3)cc2N(C(=O)c2ccco2)C[C@@H]1C [Example I-796]
1000 to 10000 nM | 50 to 500 nM | > 500 nM | CC(=O)N1c2ccc(-c3ccc(-c4ccccc4)cc3)cc2N(C(=O)c2ccco2)C[C@@H]1C [Example I-798]
1000 to 10000 nM | 50 to 500 nM | > 500 nM | CC(=O)N1c2ccc(-c3ccc(C(=O)O)cc3)cc2N(C(=O)c2ccco2)C[C@@H]1C [Example I-799]
1000 to 10000 nM | 50 to 500 nM | 100 to 500 nM | CC(=O)N1c2ccc(-c3ccc(N4CCOCC4)nc3)cc2N(C(=O)c2ccco2)C[C@@H]1C [Example I-800]
100 to 1000 nM | 50 to 500 nM | > 500 nM | CNC(=O)c1cccc(-c2ccc3c(c2)N(C(=O)c2ccco2)C[C@H](C)N3C(C)=O)c1 [Example I-801]
